The target in this test is T1, ALK (Homo sapiens, UniProt Q9UM73).
T1 construct: purchased Millipore
Put plainly: ALK kinase assay (HTRF). To be noted: apparent Ki from IC50 by Cheng-Prusoff; ALK (Millipore) 3 nM or 4 nM, 50 μM ATP, 1 h at room temperature; read-out: HTRF_ALK Human - Ki. It counts as biochemical. Background: TR-FRET usually uses a lanthanide donor and a delayed reading to cut background.

The structures appear in SMILES notation. Bounds are passed on as bounds.

T1 sequence (Q9UM73 19-1620): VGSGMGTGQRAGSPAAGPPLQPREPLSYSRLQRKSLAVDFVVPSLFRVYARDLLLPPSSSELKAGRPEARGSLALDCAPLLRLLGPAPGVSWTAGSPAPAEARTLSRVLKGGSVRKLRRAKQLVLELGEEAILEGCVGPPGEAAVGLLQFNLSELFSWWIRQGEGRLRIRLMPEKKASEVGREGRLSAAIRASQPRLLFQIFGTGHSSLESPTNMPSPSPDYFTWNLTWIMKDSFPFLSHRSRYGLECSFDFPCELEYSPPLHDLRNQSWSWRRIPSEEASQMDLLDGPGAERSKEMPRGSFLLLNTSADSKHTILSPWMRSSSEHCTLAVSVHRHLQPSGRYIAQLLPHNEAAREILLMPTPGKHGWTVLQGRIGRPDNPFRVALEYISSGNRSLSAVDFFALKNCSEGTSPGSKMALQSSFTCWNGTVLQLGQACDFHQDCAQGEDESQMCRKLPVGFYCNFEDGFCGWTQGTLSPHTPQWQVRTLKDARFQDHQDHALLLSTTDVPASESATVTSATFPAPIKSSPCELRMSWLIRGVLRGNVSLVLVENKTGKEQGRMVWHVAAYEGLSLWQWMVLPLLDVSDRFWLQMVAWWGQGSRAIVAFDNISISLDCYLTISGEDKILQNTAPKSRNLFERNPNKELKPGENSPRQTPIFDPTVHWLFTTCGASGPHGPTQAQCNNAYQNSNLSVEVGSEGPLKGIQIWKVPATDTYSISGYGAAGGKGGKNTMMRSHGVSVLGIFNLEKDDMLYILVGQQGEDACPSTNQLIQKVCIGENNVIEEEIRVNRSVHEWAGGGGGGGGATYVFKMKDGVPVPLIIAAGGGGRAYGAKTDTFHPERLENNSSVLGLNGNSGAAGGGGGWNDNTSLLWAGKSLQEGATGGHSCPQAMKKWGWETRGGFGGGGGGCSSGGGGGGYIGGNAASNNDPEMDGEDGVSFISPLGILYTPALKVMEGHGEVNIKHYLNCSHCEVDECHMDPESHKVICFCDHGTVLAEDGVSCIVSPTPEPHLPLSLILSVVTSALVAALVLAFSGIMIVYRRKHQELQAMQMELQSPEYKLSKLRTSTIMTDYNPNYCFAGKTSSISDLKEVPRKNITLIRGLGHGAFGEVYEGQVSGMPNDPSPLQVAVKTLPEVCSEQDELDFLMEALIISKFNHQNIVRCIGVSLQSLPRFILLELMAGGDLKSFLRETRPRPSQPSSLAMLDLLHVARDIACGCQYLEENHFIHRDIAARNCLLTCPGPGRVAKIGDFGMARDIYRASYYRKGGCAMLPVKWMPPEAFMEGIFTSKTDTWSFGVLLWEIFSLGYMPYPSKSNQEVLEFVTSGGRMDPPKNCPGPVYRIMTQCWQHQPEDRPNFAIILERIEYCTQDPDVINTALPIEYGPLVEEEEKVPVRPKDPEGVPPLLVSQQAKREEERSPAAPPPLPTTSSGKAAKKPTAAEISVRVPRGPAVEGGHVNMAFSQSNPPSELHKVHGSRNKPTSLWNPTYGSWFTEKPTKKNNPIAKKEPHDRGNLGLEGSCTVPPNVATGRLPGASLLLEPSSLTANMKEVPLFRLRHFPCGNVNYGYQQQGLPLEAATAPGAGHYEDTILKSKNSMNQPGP

With `COc1cc(N2CCNCC2)ccc1Nc1nc(Nc2ccc(F)c(Cl)c2Cl)cc2cnnc(O)c12` [Example 67, 7-[(2,3-dichloro-4-fluorophenyl)amino]-5-{[2-methoxy-4-(piperazin-1-yl)phenyl]amino}pyrido[3,4-d]pyridazin-4-ol], the Ki came to 2 nM. To `COc1cc(N2CCNCC2)ccc1Nc1cc(Nc2c(Cl)cccc2Cl)nc2cn[nH]c(=O)c12` [Example 68, 2-[(2,6-dichlorophenyl)amino]-4-{[2-methoxy-4-(piperazin-1-yl)phenyl]amino}pyrido[2,3-d]pyridazin-5(6H)-one] belongs 2 nM; to `Cc1c(Nc2nc(Cc3c(Cl)cccc3Cl)cc3cn[nH]c(=O)c23)ccc(N2CCNCC2)c1C` [Example 69, 7-(2,6-dichlorobenzyl)-5-{[2,3-dimethyl-4-(piperazin-1-yl)phenyl]amino}pyrido[3,4-d]pyridazin-4(3H)-one], 1 nM; to `COc1cc(N2CCNCC2)ccc1Nc1cc(Cc2c(Cl)cccc2Cl)nc2cn[nH]c(=O)c12` [Example 70, 2-(2,6-dichlorobenzyl)-4-{[2-methoxy-4-(piperazin-1-yl)phenyl]amino}pyrido[2,3-d]pyridazin-5(6H)-one], 1 nM. With `COc1cc(N2CCNCC2)ccc1Nc1nc(Nc2c(F)cc(F)cc2Cl)cc2cnnc(O)c12` [Example 71, 7-[(2-chloro-4,6-difluorophenyl)amino]-5-{[2-methoxy-4-(piperazin-1-yl)phenyl]amino}pyrido[3,4-d]pyridazin-4-ol], the Ki came out at 1 nM. As to `COc1cc(N2CCNCC2)c(C)cc1Nc1nc(Cc2c(Cl)cccc2Cl)cc2cn[nH]c(=O)c12` [Example 72, 7-(2,6-dichlorobenzyl)-5-{[2-methoxy-5-methyl-4-(piperazin-1-yl)phenyl]amino}pyrido[3,4-d]pyridazin-4(3H)-one], the Ki was found to be 12 nM.

`Cc1cc(Nc2nc(Cc3c(Cl)cccc3Cl)cc3cn[nH]c(=O)c23)c(F)cc1N1CCNCC1` [Example 73, 7-(2,6-dichlorobenzyl)-5-{[2-fluoro-5-methyl-4-(piperazin-1-yl)phenyl]amino}pyrido[3,4-d]pyridazin-4(3H)-one]: the Ki turned out to be 1 nM. On to `COc1cc2c(cc1Nc1cc(Cc3c(Cl)cccc3Cl)cc3cn[nH]c(=O)c13)CNCC2` [Example 74, 6-(2,6-dichlorobenzyl)-8-[(6-methoxy-1,2,3,4-tetrahydroisoquinolin-7-yl)amino]phthalazin-1(2H)-one], for which the Ki came to 4 nM.

Consider `COc1cc(N2CCNCC2)ccc1Nc1nc(Oc2c(F)cccc2F)cc2cn[nH]c(=O)c12` [Example 75, 7-(2,6-difluorophenoxy)-5-{[2-methoxy-4-(piperazin-1-yl)phenyl]amino}pyrido[3,4-d]pyridazin-4(3H)-one], for which the Ki turned out to be 4 nM. Consider `COc1cc(N2CCNCC2)ccc1Nc1nc(Oc2ccccc2F)cc2cnnc(O)c12` [Example 76, 7-(2-fluorophenoxy)-5-{[2-methoxy-4-(piperazin-1-yl)phenyl]amino}pyrido[3,4-d]pyridazin-4-ol], for which the Ki is 4 nM. In the case of `COc1cc(N2CCNCC2)ccc1Nc1nc(Nc2ccc(Cl)c(Cl)c2Cl)cc2cn[nH]c(=O)c12` [Example 77, 5-{[2-methoxy-4-(piperazin-1-yl)phenyl]amino}-7-[(2,3,4-trichlorophenyl)amino]pyrido[3,4-d]pyridazin-4(3H)-one], the Ki is 4 nM.

For the molecule `COc1cc(N2CCNCC2)ccc1Nc1nc(Oc2cccc(F)c2F)cc2cnnc(O)c12` [Example 78, 7-(2,3-difluorophenoxy)-5-{[2-methoxy-4-(piperazin-1-yl)phenyl]amino}pyrido[3,4-d]pyridazin-4-ol], the Ki amounted to 4 nM.

With `COc1cc(N2CCNCC2)ccc1Nc1nc(Oc2cccc(Cl)c2Cl)cc2cn[nH]c(=O)c12` [Example 79, 7-(2,3-dichlorophenoxy)-5-{[2-methoxy-4-(piperazin-1-yl)phenyl]amino}pyrido[3,4-d]pyridazin-4(3H)-one], the Ki stood at 5 nM. To `COc1cc(N2CCNCC2)ccc1Nc1nc(Oc2c(Cl)cc(F)cc2Cl)cc2cn[nH]c(=O)c12` [Example 80, 7-(2,6-dichloro-4-fluorophenoxy)-5-{[2-methoxy-4-(piperazin-1-yl)phenyl]amino}pyrido[3,4-d]pyridazin-4(3H)-one] belongs 1 nM; to `COc1cc(N2CCNCC2)ccc1Nc1nc(Oc2ccncc2Cl)cc2cn[nH]c(=O)c12` [Example 81, 7-[(3-chloropyridin-4-yl)oxy]-5-{[2-methoxy-4-(piperazin-1-yl)phenyl]amino}pyrido[3,4-d]pyridazin-4(3H)-one], greater than 470 nM; to `COc1cc(N2CCNCC2)ccc1Nc1nc(Oc2cccc(C)c2C)cc2cnnc(O)c12` [Example 82, 7-(2,3-dimethylphenoxy)-5-{[2-methoxy-4-(piperazin-1-yl)phenyl]amino}pyrido[3,4-d]pyridazin-4-ol], 4 nM. In the case of `COc1cc(N2CCNCC2)ccc1Nc1nc(Oc2ccncc2F)cc2cnnc(O)c12` [Example 83, 7-[(3-fluoropyridin-4-yl)oxy]-5-{[2-methoxy-4-(piperazin-1-yl)phenyl]amino}pyrido[3,4-d]pyridazin-4-ol] it was greater than 470 nM.

For `COc1cc(N2CCNCC2)ccc1Nc1nc(Oc2ccc(Cl)c(Cl)c2Cl)cc2cnnc(O)c12` [Example 84, 5-{[2-methoxy-4-(piperazin-1-yl)phenyl]amino}-7-(2,3,4-trichlorophenoxy)pyrido[3,4-d]pyridazin-4-ol], the Ki came to 5 nM.

As to `COc1cc(N2CCNCC2)ccc1Nc1nc(Oc2ccc(Cl)cc2Cl)cc2cn[nH]c(=O)c12` [Example 85, 7-(2,4-dichlorophenoxy)-5-{[2-methoxy-4-(piperazin-1-yl)phenyl]amino}pyrido[3,4-d]pyridazin-4(3H)-one], the Ki came out at 5 nM.

On to `COc1cc(N2CCNCC2)ccc1Nc1nc(N[C@H]2CC[C@H](O)CC2)cc2cnnc(O)c12` [Example 86, 7-[(trans-4-hydroxycyclohexyl)amino]-5-{[2-methoxy-4-(piperazin-1-yl)phenyl]amino}pyrido[3,4-d]pyridazin-4-ol], for which the Ki came out at 2 nM. `COc1cc(N2CCNCC2)ccc1Nc1nc(OC2CCCC2)cc2cnnc(O)c12` [Example 87, 7-(cyclopentyloxy)-5-{[2-methoxy-4-(piperazin-1-yl)phenyl]amino}pyrido[3,4-d]pyridazin-4-ol]: the Ki was 4 nM. Regarding `COc1cc2c(cc1Nc1nc(Cc3c(Cl)cccc3Cl)cc3cn[nH]c(=O)c13)CCNC2` [Example 88, 7-(2,6-dichlorobenzyl)-5-[(7-methoxy-1,2,3,4-tetrahydroisoquinolin-6-yl)amino]pyrido[3,4-d]pyridazin-4(3H)-one], the Ki is 4 nM. In the case of `COc1cc(N2CCNCC2)ccc1Nc1cc(Oc2ccccc2Cl)nc2cn[nH]c(=O)c12` [Example 89, 2-(2-chlorophenoxy)-4-{[2-methoxy-4-(piperazin-1-yl)phenyl]amino}pyrido[2,3-d]pyridazin-5(6H)-one] it was 15 nM; in that of `Oc1nncc2cc(N3CCC(F)CC3)nc(Nc3ccc(CN4CCCC4)cc3Cl)c12` [Example 90, 5-{[2-chloro-4-(pyrrolidin-1-ylmethyl)phenyl]amino}-7-(4-fluoropiperidin-1-yl)pyrido[3,4-d]pyridazin-4-ol], 7 nM. As for `COc1cc2c(cc1Nc1cc(Cc3ccccc3Cl)nc3cnnc(O)c13)CNCC2` [Example 91, 2-(2-chlorobenzyl)-4-[(6-methoxy-1,2,3,4-tetrahydroisoquinolin-7-yl)amino]pyrido[2,3-d]pyridazin-5-ol], the Ki is 55 nM.

For the molecule `COc1cc(CN2CCNCC2)ccc1Nc1cc(Cc2ccccc2Cl)nc2cn[nH]c(=O)c12` [Example 92, 2-(2-chlorobenzyl)-4-{[2-methoxy-4-(piperazin-1-ylmethyl)phenyl]amino}pyrido[2,3-d]pyridazin-5(6H)-one], the Ki was 15 nM.

As for `Oc1nncc2cc(NCC3CC3)nc(Nc3ccc(CN4CCCC4)cc3Cl)c12` [Example 93, 5-{[2-chloro-4-(pyrrolidin-1-ylmethyl)phenyl]amino}-7-[(cyclopropylmethyl)amino]pyrido[3,4-d]pyridazin-4-ol], the Ki was 4 nM. Regarding `COc1cc(CN2CCOCC2)ccc1Nc1cc(Cc2ccccc2Cl)nc2cnnc(O)c12` [Example 94, 2-(2-chlorobenzyl)-4-{[2-methoxy-4-(morpholin-4-ylmethyl)phenyl]amino}pyrido[2,3-d]pyridazin-5-ol], the Ki stood at 51 nM. For `CCOc1cc(CN2CCCC2)ccc1Nc1nc(Oc2ccccc2Cl)cc2cn[nH]c(=O)c12` [Example 95, 7-(2-chlorophenoxy)-5-{[2-ethoxy-4-(pyrrolidin-1-ylmethyl)phenyl]amino}pyrido[3,4-d]pyridazin-4(3H)-one], the Ki was 138 nM. `O=c1[nH]ncc2cc(N3CCC(O)CC3)nc(Nc3ccc(CN4CCCC4)cc3Cl)c12` [Example 96, 5-{[2-chloro-4-(pyrrolidin-1-ylmethyl)phenyl]amino}-7-(4-hydroxypiperidin-1-yl)pyrido[3,4-d]pyridazin-4(3H)-one]: the Ki came out at 9 nM. For the molecule `O=c1[nH]ncc2cc(N3CC(O)C3)nc(Nc3ccc(CN4CCCC4)cc3Cl)c12` [Example 97, 5-{[2-chloro-4-(pyrrolidin-1-ylmethyl)phenyl]amino}-7-(3-hydroxyazetidin-1-yl)pyrido[3,4-d]pyridazin-4(3H)-one], the Ki stood at 74 nM. Consider `COc1cc(C2CCNCC2)ccc1Nc1nc(Oc2ccccc2Cl)cc2cnnc(O)c12` [Example 98, 7-(2-chlorophenoxy)-5-{[2-methoxy-4-(piperidin-4-yl)phenyl]amino}pyrido[3,4-d]pyridazin-4-ol], for which the Ki came to 9 nM. On to `COc1cc(C2CCNCC2)ccc1Nc1nc(NCC2CC2)cc2cnnc(O)c12` [Example 99, 7-[(cyclopropylmethyl)amino]-5-{[2-methoxy-4-(piperidin-4-yl)phenyl]amino}pyrido[3,4-d]pyridazin-4-ol], for which the Ki was 6 nM. For the molecule `COc1cc(C2CCNCC2)ccc1Nc1cc(Cc2ccccc2Cl)nc2cn[nH]c(=O)c12` [Example 100, 2-(2-chlorobenzyl)-4-{[2-methoxy-4-(piperidin-4-yl)phenyl]amino}pyrido[2,3-d]pyridazin-5(6H)-one], the Ki worked out at 4 nM.
